Laboratory results published in patent US20170217889A1, “4-SUBSTITUTED PYRIDINE-2,6-DICARBOXYLIC ACID DERIVATIVES AND METHOD OF PREPARING SAME” (Okinawa Institute of Science and Technology School …, priority 2014, published 2017).

Assay: Cytotoxicity, K562 cell growth inhibition (Cell Counting Kit-8 / WST-8)
Format: cell-based
Details: human; K562 cells; 6-48 hrs incubation; WST-8 absorbance at 450 nm; read-out: Cytotoxic activity evaluated using K562 cells IC50
Method: K562 cells (American Type Culture Collection) were cultured in a culture medium containing 10% (v/v) fetal calf serum (FCS) (manufactures by Sigma) to logarithmic phase. The cells were seeded in 96-well microtiter plate at a density of 5000 cells/well in 100 μL cell culture medium and incubated at 37° C. and 5% CO2 in a humidified incubator overnight. The test compounds of various concentrations were added in a well at 10 fold concentration in 1/10 volume of medium without FCS. After 6-48 hrs incubation at 37° C. in the CO2 incubator, 10 uL solution of the viable cell counting reagent, Cell counting Kit-8 (5 mmol/L WST-8, 0.2 mmol/L 1-Methoxy PMS, 150 mmol/L NaCl) (manufactured by Dojindo) was added to each well, and reacted for 1 to 4 hours in the CO2 incubator. After the incubation, an absorbance of formazan, generated by reduction of WST-8, was determined at 450 nm using a microplate reader.
The assay readout is correlated with the viable cell numbers. Lower values correspond to high inhibition and greater values to low inhibition of the cell growth. To determine IC50 values (i.e. the concentration inhibiting the cell growth by 50%) of the compounds of formula I, several assays were made with a range of concentrations chosen empirically to give low, high and intermediate inhibition of the growth and determined using curve fitting software.

In order of falling IC50:
1. CCOC(=O)c1cc(C2CCCCC2)cc(C(=O)OCC)n1  51 µM
2. CCOC(=O)c1cc(-c2ccc(Cl)cc2)cc(C(=O)OCC)n1  50 µM
3. CCOC(=O)c1cc(-c2ccc(Br)cc2)cc(C(=O)OCC)n1  35 µM
